The target of the assay is T1, human glucocorticoid receptor (GR) complex (Homo sapiens, UniProt P04150).
T1 construct: made in house; host or cells: insect expression system (baculovirus lysate)
T1 sequence (P04150 1-777): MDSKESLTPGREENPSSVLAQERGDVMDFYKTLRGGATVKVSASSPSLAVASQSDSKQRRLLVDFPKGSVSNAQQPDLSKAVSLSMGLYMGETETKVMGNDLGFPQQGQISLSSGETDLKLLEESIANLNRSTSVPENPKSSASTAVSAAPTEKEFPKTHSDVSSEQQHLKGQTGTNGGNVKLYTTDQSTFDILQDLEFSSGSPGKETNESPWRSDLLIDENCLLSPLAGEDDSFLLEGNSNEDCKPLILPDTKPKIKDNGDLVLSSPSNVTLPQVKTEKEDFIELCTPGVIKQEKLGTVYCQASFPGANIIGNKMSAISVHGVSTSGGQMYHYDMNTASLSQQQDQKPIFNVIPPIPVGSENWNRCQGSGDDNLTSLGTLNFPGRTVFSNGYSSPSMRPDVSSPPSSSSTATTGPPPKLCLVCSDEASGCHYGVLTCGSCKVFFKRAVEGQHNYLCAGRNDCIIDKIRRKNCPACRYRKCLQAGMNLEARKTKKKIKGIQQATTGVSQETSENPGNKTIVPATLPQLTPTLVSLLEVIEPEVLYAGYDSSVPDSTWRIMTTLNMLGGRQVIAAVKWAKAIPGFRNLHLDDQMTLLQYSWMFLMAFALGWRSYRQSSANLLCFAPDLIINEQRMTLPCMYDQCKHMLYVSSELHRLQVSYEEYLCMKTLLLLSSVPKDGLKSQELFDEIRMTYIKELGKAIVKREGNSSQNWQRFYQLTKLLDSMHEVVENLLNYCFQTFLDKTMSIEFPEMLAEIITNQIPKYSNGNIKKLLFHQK
The assay is described as follows: Glucocorticoid receptor competitive binding assay (fluorescence polarization, TAMRA-labeled dexamethasone probe). Particulars: qualitative statement, values not given. As for the experimental part:
Compounds of the invention were evaluated for binding to the steroid receptor by a fluorescence polarization competitive binding assay. Detailed descriptions for preparation of recombinant glucocorticoid receptor (GR) complex used in the assay is described in Goldrick et al., U.S. provisional application No. 60/291,877, filed May 18, 2001 (corresponding to Goldrick et al., U.S. nonprovisional application No. 10/151,133, filed May 20, 2002) both incorporated herein by reference in their entirety. Preparation of the tetramethyl rhodamine (TAMRA)-labeled dexamethasone probe was accomplished using a standard literature procedure (M. Pons et al., J. Steroid Biochem., 1985, 22, pp. 267–273).
A. Glucocorticoid Receptor Competitive Binding Assay
Step 1. Characterization of the Fluorescent Probe
The wavelengths for maximum excitation and emission of the fluorescent probe should first be measured. An example of such a probe is rhodamine (TAMRA)-labeled dexamethasone.
The affinity of the probe for the steroid receptor was then determined in a titration experiment. The fluorescence polarization value of the probe in assay buffer was measured on an SLM-8100 fluorometer using the excitation and emission maximum values described above. Aliquots of expression vector lysate were added and fluorescence polarization was measured after each addition until no further change in polarization value was observed. Non-linear least squares regression analysis was used to calculate the dissociation constant of the probe from the polarization values obtained for lysate binding to the probe.
Step 2. Screening for Inhibitors of Probe Binding
This assay uses fluorescence polarization (FP) to quantitate the ability of test compounds to compete with tetramethyl rhodamine (TAMRA)-labeled dexamethasone for binding to a human glucocorticoid receptor (GR) complex prepared from an insect expression system. The assay buffer was: 10 mM TES, 50 mM KCl, 20 mM Na2MoO4.2H2O, 1.5 mM EDTA, 0.04% w/v CHAPS, 10% v/v glycerol, 1 mM dithiothreitol, pH 7.4. Test compounds were dissolved to 1 mM in neat DMSO and then further diluted to 10× assay concentration in assay buffer supplemented with 10% v/v DMSO. Test compounds were serially diluted at 10× assay concentrations in 10% DMSO-containing buffer in 96-well polypropylene plates. Binding reaction mixtures were prepared in 96-well black Dynex microtiter plates by sequential addition of the following assay components to each well: 15 μL of 10× test compound solution, 85 μL of GR-containing baculovirus lysate diluted 1:170 in assay buffer, and 50 μL of 15 nM TAMRA-labeled dexamethasone. Positive controls were reaction mixtures containing no test compound; negative controls (blanks) were reaction mixtures containing 0.7 μM to 2 μM dexamethasone. The binding reactions were incubated for 1 hour at room temperature and then read for fluorescence polarization in the LJL Analyst set to 550 nm excitation and 580 nm emission, with the Rhodamine 561 dichroic mirror installed. IC50 values were determined by iterative non-linear curve fitting of the FP signal data to a 4-parameter logistic equation.
On the technique in general: In fluorescence polarisation assays a small probe gives low polarisation when free and higher when bound to something large.
Turning to `COc1ccc(F)cc1C(C)(C)CC(N)(Cc1cc(C)cc(C)c1)C(F)(F)F` (stereo not shown) [Compound 1, 1-(3,5-Dimethyl-benzyl)-3-(5-fluoro-2-methoxy-phenyl)-3-methyl-1-trifluoromethyl-butylamine], the “activity in the GR binding assay” value is on record as “demonstrated activity”.
Turning to `COc1ccc(F)cc1C(C)(C)CC(N)(Cc1cc(Cl)cc(Cl)c1)C(F)(F)F` (stereo not shown) [Compound 2, 1-(3,5-Dichloro-benzyl)-3-(5-fluoro-2-methoxy-phenyl)-3-methyl-1-trifluoromethyl-butylamine], the “activity in the GR binding assay” value is reported as “demonstrated activity”.
The result for `COc1ccc(F)cc1C(C)(C)CC(N)(Cc1ccc(Cl)c(Cl)c1)C(F)(F)F` (stereo not shown) [Compound 3, 1-(3,4-Dichloro-benzyl)-3-(5-fluoro-2-methoxy-phenyl)-3-methyl-1-trifluoromethyl-butylamine] reads “demonstrated activity”; that for `COc1ccc(F)cc1C(C)(C)CC(N)(Cc1cc(C(F)(F)F)cc(Cl)c1F)C(F)(F)F` (stereo not shown) [Compound 4, 1-(3-Chloro-2-fluoro-5-trifluoromethyl-benzyl)-3-(5-fluoro-2-methoxy-phenyl)-3-methyl-1-trifluoromethyl-butylamine], “demonstrated activity”; that for `COc1ccc(F)cc1C(C)(C)CC(N)(Cc1ccc(C#N)cc1Cl)C(F)(F)F` (stereo not shown) [Compound 5, 4-[2-Amino-4-(5-fluoro-2-methoxy-phenyl)-4-methyl-2-trifluoromethyl-pentyl]-3-chloro-benzonitrile], “demonstrated activity”.
The result for `Cc1cc(C)cc(CC(N)(CC(C)(C)c2cc(F)ccc2O)C(F)(F)F)c1` (stereo not shown) [Compound 6, 2-[3-Amino-3-(3,5-dimethyl-benzyl)-4,4,4-trifluoro-1,1-dimethyl-butyl]-4-fluoro-phenol] reads “demonstrated activity”.
Take `CC(C)(CC(N)(Cc1cc(Cl)cc(Cl)c1)C(F)(F)F)c1cc(F)ccc1O` (stereo not shown) [Compound 7, 2-[3-Amino-3-(3,5-dichloro-benzyl)-4,4,4-trifluoro-1,1-dimethyl-butyl]-4-fluoro-phenol]: the “activity in the GR binding assay” value is “demonstrated activity”.

The values are drawn from patent US7186864B2, “Glucocorticoid mimetics, methods of making them, pharmaceutical compositions, and uses thereof” (Boehringer Ingelheim Pharmaceuticals, Inc., priority 2002, dated 2007).
